# Experimental data: BindingDB's records for doi:10.1021/acsmedchemlett.8b00255 (2018)
# Biological target: T1, Interleukin-23 receptor (Homo sapiens, UniProt Q5VWK5)
# T1 sequence (Q5VWK5 whole entry): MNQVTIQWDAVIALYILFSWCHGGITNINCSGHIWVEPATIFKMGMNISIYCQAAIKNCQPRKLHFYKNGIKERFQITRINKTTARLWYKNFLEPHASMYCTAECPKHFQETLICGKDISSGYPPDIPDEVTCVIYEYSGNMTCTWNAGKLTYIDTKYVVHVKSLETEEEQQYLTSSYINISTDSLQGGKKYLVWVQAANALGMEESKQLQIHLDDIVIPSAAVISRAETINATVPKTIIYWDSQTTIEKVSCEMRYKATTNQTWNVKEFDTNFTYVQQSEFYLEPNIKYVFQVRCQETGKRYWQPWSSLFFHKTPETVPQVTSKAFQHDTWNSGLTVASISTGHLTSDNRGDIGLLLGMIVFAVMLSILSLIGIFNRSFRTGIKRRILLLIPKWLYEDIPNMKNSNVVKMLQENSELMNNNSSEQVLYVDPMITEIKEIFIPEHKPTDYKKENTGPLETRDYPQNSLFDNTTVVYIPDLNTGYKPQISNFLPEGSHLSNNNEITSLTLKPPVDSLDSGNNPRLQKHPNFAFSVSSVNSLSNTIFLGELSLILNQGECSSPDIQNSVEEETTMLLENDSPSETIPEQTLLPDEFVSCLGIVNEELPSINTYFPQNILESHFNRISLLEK
# Test: Binding affinity to recombinant human flag/His-tagged IL-23R (1 to 353 residues) expressed in HEK293F cells assessed as dissociation rate constant measured over 90 secs by surface plasmon resonance assay
smiles,measurement,value
CC(=O)N[C@H]1CCSC[C@@H](C(=O)N[C@@H](Cc2ccc(OCCN)cc2)C(=O)N[C@@H](Cc2c[nH]c3ccccc23)C(=O)N[C@@](C)(CCCCN)C(=O)N[C@@H](CCC(=O)O)C(=O)N[C@@H](CC(N)=O)C(=O)NCC(N)=O)NC(=O)[C@H](CCC(N)=O)NC(=O)[C@H](Cc2c[nH]c3ccccc23)NC(=O)[C@H]([C@@H](C)O)NC(=O)[C@H](CCC(N)=O)NC1=O,koff,0.0274 s⁻¹
